Data on two compounds can be found in patent US12521399B2, “Compound as voltage-gated sodium channel inhibitor” (Guangzhou Fermion Technology Co., Ltd., priority 2022, dated 2026).

Data set [1] deals with T1, human Nav1.8 ion channel stably expressed by CHO cells (Homo sapiens, UniProt Q9Y5Y9).
T1 construct: expressed in transfected cells
The data set is described as follows: Blocking activity on sodium ion channel 1.8 (Nav1.8), manual whole-cell patch clamp. The settings on record: Nav1.8 peak sodium current. In kind it is cell-based. On the procedure:
Test Example A: Blocking activity of the compound of the present invention on sodium ion channel 1.8 (Nav1.8)
Experimental objective: to determine the rate of inhibition of the compound on the human Nav1.8 ion channel stably expressed by CHO cells
The compound was dissolved using DMSO to prepare a stock solution. The stock solution was diluted with an extracellular fluid (140 mM NaCl, 3.5 mM KCl, 1 mM MgCl2, 2 mM CaCl2), 10 mM D-glucose, 10 mM HEPES, 1.25 mM NaH2PO4 2H2O, pH=7.4 (NaOH)) to particular concentrations to be used in manual patch clamp testing.
A capillary glass tube was stretched to form a recording electrode using a microelectrode puller. A microelectrode manipulator was operated under an inverted microscope to contact the recording electrode to the cells, and negative suction pressure was applied to form a GQ seal. Once the GQ seal was formed, rapid capacitance compensation was performed, and then the negative pressure was continued to break the cell membrane, forming a whole cell recording mode. Slow capacitance was compensated for, and the film capacitance and series resistance were recorded. No leakage compensation was applied. Once the Nav1.8 current recorded in the whole cell was stabilized, administration of the compound was started. The compound was allowed to act at the first concentration for 5 min (or until the electric current stabilized), and then the second concentration was tested. For each test compound, two concentrations were tested.
The voltage stimulation protocol for whole-cell patch clamp recording of Nav1.8 sodium current was as follows: once the whole cell seal was formed, the cellular voltage was clamped at −120 mV for 30 ms. The clamping voltage was depolarized to 0 mV for 50 ms, and then the voltage was restored to −50 mV (for the specific voltage, reference was made to the half inactivation voltage in IV testing) for 8 s. […] Data acquisition was repeated every 20 s. The effect of the compound on the peak value of the sodium current was observed. The experimental data was collected by an EPC-10 amplifier (HEKA) and was stored in PatchMaster (HEKA) software.

Data set [2] is described as follows: Pharmacokinetic evaluation by intravenous injection or gavage in rats. The conditions noted are these: Sprague-Dawley (SD), rat, in vivo. On the procedure: Test Example B: Quantitative pharmacokinetic evaluation of the compound of the present invention administered by intravenous injection or gavage in rats.
The present inventors conducted pharmacokinetic evaluation of the compound of the present invention in rats.
The compound of the present invention was administered to the test animals as a solution of 5% DMSO+5% tween 80+90% physiological saline solution. The animals were fasted for 12 hours prior to the administration, but had free access to water. For the intravenous injection administration group, the administration dose was 1 mg/kg; for gavage administration, the administration dose was 10 mg/kg. Following administration, blood was intravenously collected from the animals (approximately 0.3 mL of blood) at the following time points: 0.083 h, 0.25 h, 0.5 h, 1.0 h, 2.0 h, 4.0 h, 8.0 h, and 24 h. The blood collection tubes previously had EDTA-K2 added thereto as an anticoagulant. Each blood sample was centrifuged at 6800 g at a low temperature for 6 minutes, and plasma was collected and stored at −80° C.
Sample preparation for LC-MS/MS assay: 20 μL of the plasma sample was subjected to protein precipitation using 400 μL of methanol containing 100 ng/mL of IS (tolbutamide). The mixture was vortexed for 1 minute and then centrifuged at 18000 g for 7 minutes. 400 μL of the supernatant was transferred to a 96-well plate. 2 μL of the supernatant were subjected to LC-MS/MS analysis.

Another data set deals with Nav1.3 (Homo sapiens, UniProt Q9NY46). The settings on record: read-out: TTX IC50 (nm); cited from earlier work.
Nav1.3, sequence (Q9NY46 whole entry, looked up): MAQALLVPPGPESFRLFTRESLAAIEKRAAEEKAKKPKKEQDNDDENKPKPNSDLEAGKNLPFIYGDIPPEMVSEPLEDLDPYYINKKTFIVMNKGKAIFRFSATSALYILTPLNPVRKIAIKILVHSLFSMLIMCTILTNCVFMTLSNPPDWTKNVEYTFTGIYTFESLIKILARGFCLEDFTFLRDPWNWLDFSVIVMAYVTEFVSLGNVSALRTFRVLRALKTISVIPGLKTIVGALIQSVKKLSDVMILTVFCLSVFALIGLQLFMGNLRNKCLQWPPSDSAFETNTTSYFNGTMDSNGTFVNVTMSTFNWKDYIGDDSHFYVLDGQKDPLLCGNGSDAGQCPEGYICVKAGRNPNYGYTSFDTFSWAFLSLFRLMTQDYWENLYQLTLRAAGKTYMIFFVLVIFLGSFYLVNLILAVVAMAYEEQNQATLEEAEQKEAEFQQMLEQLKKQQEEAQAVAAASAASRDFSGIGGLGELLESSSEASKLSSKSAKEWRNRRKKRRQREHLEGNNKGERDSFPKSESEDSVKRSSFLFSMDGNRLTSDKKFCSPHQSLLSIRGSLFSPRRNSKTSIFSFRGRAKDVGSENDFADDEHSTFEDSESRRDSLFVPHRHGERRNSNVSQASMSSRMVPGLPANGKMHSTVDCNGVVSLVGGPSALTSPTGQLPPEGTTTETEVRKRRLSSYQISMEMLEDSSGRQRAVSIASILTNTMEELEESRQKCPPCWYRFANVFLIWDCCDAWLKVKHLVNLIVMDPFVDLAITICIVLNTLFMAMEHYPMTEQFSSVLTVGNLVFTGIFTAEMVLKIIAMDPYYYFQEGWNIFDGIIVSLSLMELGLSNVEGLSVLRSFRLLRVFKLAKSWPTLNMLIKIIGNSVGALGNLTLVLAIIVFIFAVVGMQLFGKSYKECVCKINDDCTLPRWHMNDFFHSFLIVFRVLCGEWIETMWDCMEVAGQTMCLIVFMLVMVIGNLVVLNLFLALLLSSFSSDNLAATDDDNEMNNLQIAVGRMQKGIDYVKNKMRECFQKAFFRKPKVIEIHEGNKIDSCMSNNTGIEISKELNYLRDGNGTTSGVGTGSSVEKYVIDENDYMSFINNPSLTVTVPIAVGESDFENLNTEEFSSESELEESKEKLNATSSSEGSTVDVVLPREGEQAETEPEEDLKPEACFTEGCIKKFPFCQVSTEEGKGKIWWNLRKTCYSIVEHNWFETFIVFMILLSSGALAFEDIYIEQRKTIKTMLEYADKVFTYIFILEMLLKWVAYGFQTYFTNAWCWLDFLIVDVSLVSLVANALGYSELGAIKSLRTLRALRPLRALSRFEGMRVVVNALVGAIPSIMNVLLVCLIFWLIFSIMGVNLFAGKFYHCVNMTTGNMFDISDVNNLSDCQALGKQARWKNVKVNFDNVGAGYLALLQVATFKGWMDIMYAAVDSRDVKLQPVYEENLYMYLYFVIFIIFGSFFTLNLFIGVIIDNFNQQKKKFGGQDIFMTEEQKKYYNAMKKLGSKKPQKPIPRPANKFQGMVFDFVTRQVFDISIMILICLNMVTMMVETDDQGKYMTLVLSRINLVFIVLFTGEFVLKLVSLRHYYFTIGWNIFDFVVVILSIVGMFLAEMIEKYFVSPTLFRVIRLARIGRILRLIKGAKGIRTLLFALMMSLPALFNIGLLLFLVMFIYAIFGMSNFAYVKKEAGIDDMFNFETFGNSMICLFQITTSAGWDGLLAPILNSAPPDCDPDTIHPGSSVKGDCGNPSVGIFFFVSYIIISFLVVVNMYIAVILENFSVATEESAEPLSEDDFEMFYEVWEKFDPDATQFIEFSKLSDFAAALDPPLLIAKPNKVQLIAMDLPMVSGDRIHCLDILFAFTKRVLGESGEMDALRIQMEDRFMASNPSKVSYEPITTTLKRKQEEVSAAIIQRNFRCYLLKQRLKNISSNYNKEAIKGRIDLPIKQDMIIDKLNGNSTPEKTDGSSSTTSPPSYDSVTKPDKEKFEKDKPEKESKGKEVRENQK
A further data set addresses Nav1.8 (Homo sapiens, UniProt Q9Y5Y9). The settings on record: read-out: TTX IC50 (nm); cited from earlier work.

T1 sequence (Q9Y5Y9 whole entry): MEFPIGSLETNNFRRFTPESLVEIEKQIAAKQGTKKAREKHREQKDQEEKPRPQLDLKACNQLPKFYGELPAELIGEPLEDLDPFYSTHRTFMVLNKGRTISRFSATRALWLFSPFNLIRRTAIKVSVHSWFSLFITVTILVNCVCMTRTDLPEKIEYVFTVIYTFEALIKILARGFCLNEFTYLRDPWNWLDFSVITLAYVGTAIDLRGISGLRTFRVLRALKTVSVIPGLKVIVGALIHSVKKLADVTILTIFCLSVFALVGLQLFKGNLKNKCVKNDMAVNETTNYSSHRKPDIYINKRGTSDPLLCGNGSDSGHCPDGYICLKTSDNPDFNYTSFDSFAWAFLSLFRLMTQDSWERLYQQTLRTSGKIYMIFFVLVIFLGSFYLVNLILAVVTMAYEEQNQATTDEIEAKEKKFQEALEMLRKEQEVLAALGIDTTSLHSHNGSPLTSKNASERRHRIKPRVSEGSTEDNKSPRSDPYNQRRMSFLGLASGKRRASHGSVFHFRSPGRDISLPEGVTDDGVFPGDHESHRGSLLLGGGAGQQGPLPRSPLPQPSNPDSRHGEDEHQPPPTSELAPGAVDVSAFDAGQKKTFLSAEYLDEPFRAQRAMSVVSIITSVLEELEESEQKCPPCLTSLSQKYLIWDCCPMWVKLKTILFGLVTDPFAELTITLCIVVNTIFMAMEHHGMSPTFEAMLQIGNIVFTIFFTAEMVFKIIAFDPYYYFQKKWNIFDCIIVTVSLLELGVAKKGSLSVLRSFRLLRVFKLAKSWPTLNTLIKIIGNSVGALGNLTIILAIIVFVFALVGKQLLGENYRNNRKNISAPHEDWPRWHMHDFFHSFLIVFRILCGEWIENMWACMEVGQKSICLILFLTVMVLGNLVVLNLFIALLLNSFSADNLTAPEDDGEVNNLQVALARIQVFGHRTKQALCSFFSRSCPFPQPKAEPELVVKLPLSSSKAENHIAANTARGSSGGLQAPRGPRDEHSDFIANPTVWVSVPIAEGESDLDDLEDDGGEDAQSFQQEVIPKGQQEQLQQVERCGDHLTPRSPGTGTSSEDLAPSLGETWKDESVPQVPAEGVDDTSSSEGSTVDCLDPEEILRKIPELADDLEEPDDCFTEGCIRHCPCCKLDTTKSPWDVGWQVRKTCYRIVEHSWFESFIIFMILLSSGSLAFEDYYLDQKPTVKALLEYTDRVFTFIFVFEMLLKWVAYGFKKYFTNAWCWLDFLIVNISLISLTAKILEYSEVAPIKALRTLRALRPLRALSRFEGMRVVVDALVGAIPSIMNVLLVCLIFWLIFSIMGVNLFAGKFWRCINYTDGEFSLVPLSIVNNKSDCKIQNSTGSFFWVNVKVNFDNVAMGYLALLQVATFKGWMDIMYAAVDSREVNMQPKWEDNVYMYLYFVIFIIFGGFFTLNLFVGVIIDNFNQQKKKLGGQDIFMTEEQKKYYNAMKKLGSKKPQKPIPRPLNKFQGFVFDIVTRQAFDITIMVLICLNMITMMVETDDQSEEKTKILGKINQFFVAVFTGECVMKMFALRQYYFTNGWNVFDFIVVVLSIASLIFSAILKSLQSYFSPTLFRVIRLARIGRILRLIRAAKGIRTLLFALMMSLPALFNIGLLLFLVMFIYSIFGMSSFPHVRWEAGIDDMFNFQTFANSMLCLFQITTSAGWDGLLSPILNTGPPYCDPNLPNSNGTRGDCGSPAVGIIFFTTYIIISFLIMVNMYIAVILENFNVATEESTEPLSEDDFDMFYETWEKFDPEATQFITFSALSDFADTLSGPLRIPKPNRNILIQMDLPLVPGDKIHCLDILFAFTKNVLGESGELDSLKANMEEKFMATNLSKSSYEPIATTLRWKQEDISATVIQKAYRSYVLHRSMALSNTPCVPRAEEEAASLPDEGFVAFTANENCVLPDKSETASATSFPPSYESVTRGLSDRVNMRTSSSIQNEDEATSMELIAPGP
Nav1.8, sequence (Q9Y5Y9 whole entry, looked up): as the sequence (Q9Y5Y9 whole entry) above

As to `Cc1cc(F)ccc1Oc1cc(C(F)(F)F)c(Cl)cc1C(=O)Nc1ccnc(S(C)(=N)=O)c1` (stereo not drawn) [Compound 13, 5-chloro-2-(4-fluoro-2-methylphenoxy)-N-(2-(S-methyliminosulfonyl)pyridin-4-yl)-4-(trifluoromethyl)benzamide], the inhibition at 0.01 µM in data set [1] (10 nM compound, read-out: Inhibition rate (%) @ 10 nM) is 52.4%. Moreover, the inhibition at 0.1 µM in data set [1] (100 nM compound, read-out: Inhibition rate (%) @ 100 nM) stood at 97.2%. In data set [2] (iv, 1 mg/kg), the AUC(0-t) is 2240 ng·h/mL, the peak concentration (Cmax) amounted to 496 ng/mL, the Tmax came out at 0.08 h and the Vd is 2.48 L/kg. Also, in data set [2] (iv, 1 mg/kg), the clearance is 7.52 mL/min/kg and the half-life is 3.88 h. Besides, in data set [2] (po, 10 mg/kg), the AUC(0-t) was determined as 18600 ng·h/mL, the maximum concentration (Cmax) came out at 1840 ng/mL, the Tmax came to 2.67 h and the bioavailability turned out to be 83.2%. In data set [2] (po, 10 mg/kg), the half-life is 3.85 h.
In the case of `NC1=N[C@H](O)[C@H]2[C@H]3O[C@]4(O)O[C@@H]([C@@H](O)[C@@]2(N1)[C@@H]4O)[C@]3(O)CO` [TTX, tetrodotoxin], the IC50 is 0.004 µM on Nav1.3 and 31 µM at Nav1.8.
